Measured values: a melting point compilation (Tetko et al.)

Row | SMILES | melting point [°C]
1 | COc1ccc(OC)c(S(N)(=O)=O)c1 | 150 to 152
2 | O=C(O)CC(=O)O | 136
3 | CC1=C(C(=O)OCCC(C)C)C(c2ccco2)NC(=O)N1 (configuration not stated) | 176
4 | CCCCCCCCOC(=O)CC | -42.6
5 | NS(=O)(=O)c1cnccc1Cl | 150 to 155
6 | COP(=S)(OC)Oc1cc(Cl)c(Br)cc1Cl | 53.5
7 | O=S(=O)(O)CC(O)CN1CCOCC1 (configuration not stated) | 273 to 274
8 | O=C(O)C(F)(F)C(F)(F)C(F)(F)C(F)(F)C(F)(F)C(F)(C(F)(F)F)C(F)(F)F | 33 to 36
9 | C[Si](C)(C)C1=CC2(CCCCC2)CC1=O | 56
10 | O=c1c(Cl)c(Cl)cnn1Cc1c(F)cccc1Cl | 137 to 138
11 | COc1cc(C(=O)c2ccc(Cl)cc2Cl)c([N+](=O)[O-])cc1OC | 114
12 | CCCCCCCCOc1ccccc1 | 8
13 | BrC1C2CC3CC(C2)CC1C3 (configuration not stated) | 139
14 | CCOC(=O)C1=C(N)CCC1 | 57 to 60
15 | Clc1cccnc1-c1ccnc(Cl)c1Cl | 169
16 | Nc1nc(F)cc(C(F)(F)F)c1F | 67
17 | COc1ccc2nc(NN)nnc2c1 | 238 to 240
18 | CCC(C)(C)c1cc(O)c(C(C)(C)CC)cc1O | 180
19 | CCSc1ccc2c(c1)N(CCCN1CCN(C)CC1)c1ccccc1S2 | 63
20 | O=[N+]([O-])c1cccnc1Oc1ccccc1F | 90 to 92
21 | Cc1nc(-c2cc(CO)no2)cs1 | 120
22 | Nc1cc(-c2cccs2)n[nH]1 | 101
23 | CCCC1Nn2c(nnc2-c2ccc(OCC)cc2)S1 (configuration not stated) | 90
24 | CC(=NO)C(C)(C)O | 85
25 | CCCCCOC(=O)Nc1nc(=O)n(C2OC(C)C(O)C2O)cc1F (configuration not stated) | 116
26 | O=C(O)c1c(F)c(F)cc(F)c1F | 151

Row | SMILES | melting point [°C]
27 | c1ccc(C(OC[C@H]2CO2)(c2ccccc2)c2ccccc2)cc1 | 98 to 101
28 | CC1CCC(=O)N1 (configuration not stated) | 43
29 | CC(C)CCCC(C)C1CC[C@@]2(C)C3=CCC4[C@H](C)[C@@H](O)CC[C@]4(C)C3=CC[C@]12C (some centres not stated) | 123
30 | Cc1ccc(-n2c(-c3cccnc3)noc2=S)cc1 | 159
31 | CCCCCCCCCCCCCC(CCCCCCCCCC)CCCCCCCCCC | 10.8
32 | CCOC(=O)COc1cc(Cl)c(Cl)cc1Cl | 64
33 | Cc1ccc(S(=O)(=O)OCC2OC(C)(C)OC2COS(=O)(=O)c2ccc(C)cc2)cc1 (configuration not stated) | 92
34 | CCC#CCCCCC(=O)O | 14
35 | O=C(N[N+](=O)[O-])c1ccccc1 | 143
36 | CCOC(=O)c1cc(-c2ccc(Br)s2)on1 | 51 to 53
37 | Oc1ccc2ccccc2c1CN1CCCCC1 | 93 to 94
38 | Ic1cn(C(c2ccccc2)(c2ccccc2)c2ccccc2)cn1 | 224 to 225
39 | FC1(F)C(Cl)=C(Cl)C(F)(F)C(F)(F)C1(F)F | -70
40 | CCNc1nc2c(cc1C(=O)OCC)c(=O)oc1ccccc12 | 186
41 | O=C=NC12CC3CC(CC(C3)C1)C2 | 144 to 146
42 | CCCC(C)Cl (configuration not stated) | -80
43 | Cc1cc(N=Nc2ccccc2C)ccc1N | 101 to 102
44 | CCCNC(N)=S | 120 to 123
45 | Cc1cc(C(C)(C)C)c(C)cc1O | 71.2
46 | NCC(O)C(=O)O (configuration not stated) | 235
47 | CC1CCC(C)(COC(=S)Nc2ccccc2)C1(C)C (configuration not stated) | 101
48 | CC1=CC2(C)C3C(=O)OC(=O)C3C1C1C(=O)OC(=O)C12 (configuration not stated) | 268 to 270
49 | ClC1=CC(c2ccccc2)c2ccccc21 (configuration not stated) | 81
50 | O=C1C=C(Cl)C(=O)O1 | 33
51 | CC1(c2ccccc2)CCOCO1 (configuration not stated) | 37.5
52 | CC(C)CC(N)P(=O)(O)O (configuration not stated) | 274 to 280

Row | SMILES | melting point [°C]
53 | Nc1c(C=Cc2ccccc2)ccc2c1C(=O)c1ccccc1C2=O | 214
54 | COC(C)=O | -98
55 | CN(C)C(=S)N(C)C | 79.3
56 | CC(C)(C)c1cc2c(O)c(c1)Cc1cc(C(C)(C)C)cc(c1O)Cc1cc(C(C)(C)C)cc(c1O)Cc1cc(C(C)(C)C)cc(c1O)Cc1cc(C(C)(C)C)cc(c1O)Cc1cc(C(C)(C)C)cc(c1O)C2 | 300
57 | N#CC1(c2ccc(F)cc2Cl)CCCCC1 | 58 to 65
58 | CCSc1nnc(NC(=O)C(C(F)(F)F)C(F)(F)F)s1 | 159
59 | O=C1CSc2cc(Cl)ccc2N1 | 214
60 | N#CC1C(=S)NC2(C(=O)Nc3ccccc32)C2=C1CCC2 (configuration not stated) | 311
61 | O=C(O)CCSCSCCC(=O)O | 138 to 140
62 | COCCCn1c(C(=O)O)cc2c(=O)n(C)c(=O)n(C)c21 | 166
63 | COc1ccc(C(O)(c2cncnc2)C2CC2)cc1 (configuration not stated) | 110
64 | NCCS(=O)(=O)O | 328
65 | CCOC(=S)SSC(=S)OCC | 30
66 | C=C(C)C1CC=C(C)C(=NO)C1 (configuration not stated) | 71.5
67 | CCCCCCCCCCN(CCCCCCCCCC)CCCCCCCCCC | -5 to -3
68 | CCN(C(=O)n1nnn(-c2ccccc2Cl)c1=O)C1CCCCC1 | 79
69 | FC(F)(Cl)C(F)(F)Cl | -94
70 | CC(=Nc1cccc(N)c1)c1c(O)c2ccccc2n(-c2ccccc2)c1=O | 200
71 | c1cc2c3c(cccc3c1)-c1nc3ccccc3nc1-2 | 239 to 242
72 | Cc1c(O)c(C)c(CCl)c(C)c1CCl | 135 to 140
73 | COC(=O)c1cc(C)n(C)c1C | 117
74 | O=[N+]([O-])c1cccnc1Sc1ccc(Cl)cc1 | 127 to 129
75 | COc1nc(N)nc(SC)n1 | 200 to 202
76 | Nc1ccc(Oc2ccc([N+](=O)[O-])cc2)cc1 | 132 to 134

More lines, now with the values ahead:

Row | melting point [°C] | SMILES
77 | 185 to 187 | CC(=O)Nc1cccc(-n2nnnc2S)c1
78 | 90 to 94 | COc1ccc([N+](=O)[O-])c(O)c1
79 | 128 to 130 | O=[N+]([O-])c1ccc2c(c1)CCN2S(=O)(=O)c1ccccc1
80 | 187 | O=C(/C=C/c1ccc(-c2ccc([N+](=O)[O-])cc2)o1)c1ccco1
81 | 124 | COC(=O)C1(S(=O)(=O)c2ccc(Br)cc2)CC1
82 | 25 to 27 | CC(=O)c1c(O)cccc1OCCC(C)C
83 | 196 | Cc1ccc(NC(=O)C(C(F)(F)F)C(F)(F)F)cc1
84 | 175 | O=C(O)c1ccc([N+](=O)[O-])c(F)c1
85 | 247 to 249 | Cc1c(-c2ccccc2)sc2ncnc(O)c12
86 | 18 | CCC(C)Nc1ccc(NC(C)CC)cc1 (configuration not stated)
87 | 85 to 87 | O=C(Cl)c1csc(-c2cccc(Cl)c2)n1
88 | 202 to 203 | CC(=O)Oc1ccccc1C1NC(=O)NC(C)=C1C(=O)OCc1ccccc1 (configuration not stated)
89 | 250 | COC(=O)Nc1nc2cc(C(=O)C3CC3)ccc2[nH]1
90 | 135 | O=C(O)c1cccc(S(=O)(=O)Cl)c1
91 | -56 | FC(F)(F)c1cccc(Cl)c1
92 | 202 to 204 | O=C(O)c1cccc2cc[nH]c12
93 | 151 to 154 | O=C(O)CS(=O)(=O)C=Cc1ccccc1
94 | 173 to 176 | OCc1ccc(-c2ccncc2)cc1
95 | 75 to 76 | CC(C)CC1=CC(=Cc2ccc(-c3ccccc3)o2)C(=O)O1

Row | melting point [°C] | SMILES
96 | 210 to 211 | Cc1ccccc1/C=C(\C#N)c1nc2ccccc2[nH]1
97 | 98.6 | NC(=S)c1ccc2occc2c1
98 | 233 | O=C1NN(c2ccccc2)C(=O)C1c1ccccc1 (configuration not stated)
99 | 139 | O=C(O)c1cc(Cl)nnc1Cl
100 | 81 to 83 | CC(C)(C)OC(=O)c1cccc(N)c1
101 | 142 to 144 | Cc1nc(-c2ccccn2)nc(O)c1Cl
102 | 300 | Nc1cccc(S(=O)(=O)O)c1
103 | 99 to 105 | O=S(=O)(N(c1ccccc1)S(=O)(=O)C(F)(F)F)C(F)(F)F
104 | 165 | NC(=O)c1ccnc(I)c1
105 | 36 | COc1ccc2oc(CCC(C)=O)c(-c3ccc(C)o3)c2c1
106 | 112 to 113 | Cc1nccn1-c1ccc(N)cc1
107 | 75 | CC(C)Cc1ccc(C(C)C(=O)O)cc1 (configuration not stated)
108 | 164 | O=C(O)c1ccc(Cl)cc1Cl
109 | 101 | Cc1ccc2cc(N(C)C)ccc2n1
110 | 123 to 125 | C[C@@H](NC(=O)c1ccccc1)c1ccccc1
111 | 45 to 47 | N#CCCOc1ccc(Cl)cc1
112 | 184 | O=C(O)C=C(Br)C(=O)O
113 | 35 | CCc1ccccc1Cc1ccccc1N
114 | 38 to 41 | O=Cc1ccccc1OCc1cccc(Cl)c1

Row | melting point [°C] | SMILES
115 | 87 | CC(=O)C(N=Nc1ccccc1)C(C)=O
116 | 82 to 85 | O=C(O)C(F)c1ccccc1 (configuration not stated)
117 | 300 | O=S(=O)(O)c1cccnc1
118 | 200 | COc1ccc(-c2nnc3n2NCS3)cc1
119 | 232 to 235 | O=C(CCl)N1CCc2c([nH]c3ccccc23)C1C(F)(F)F (configuration not stated)
120 | 217 to 221 | CN(C=O)c1ccc(C(=O)O)cc1
121 | 33.5 | O=C(OCCOCCOC(=O)c1ccccc1)c1ccccc1
122 | 137 to 139 | O=C(Nc1ccccn1)c1ccccc1Cl
123 | 102 | CCOC(=O)C(C)C(O)(c1ccccc1)c1ccccc1 (configuration not stated)
124 | 164 | O=C(O)c1ccc(Oc2ccccc2)nc1
125 | 101 | CC(=O)c1ccc(C#Cc2ccccc2)cc1
126 | 186 | NC(C(=O)O)C(O)c1ccccc1 (racemic)
127 | 127 to 128 | O=C(Cl)c1ccc(-n2cccn2)cc1
128 | 200 | Cc1nc(-c2ccc(C(=O)O)s2)cs1
129 | 81 to 84 | COc1ccc(-c2ccccc2)cc1N
130 | 173 to 177 | Oc1ccc(Sc2ccc(O)cc2O)c(O)c1
131 | 68 | NNC(=O)OCc1ccccc1
132 | 160 | O=C(C[N+](=O)[O-])c1cccc(C(=O)C[N+](=O)[O-])c1
